Results: ChEMBL document CHEMBL1201862, “PubChem BioAssay data set” (2004)
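1) Cells in 96-well plates. 2) Compound, 48 h, 5 concentrations. 3) Linear interpolation between surrounding doses. 4) Unreached endpoint = highest concentration. GI50: concentration for 50% inhibition of growth.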 Activity calls are given as the source filed them. No stated cut-off is given here; in the data, active = GI50 up to about 1.1 µM and inactive = higher.

Key:
Assay in all cases: NCI anticancer screen, dose series, 48 h
786-0 = system: 786-0
A498 = system: A498
A549 = system: A549
ACHN = system: ACHN
BT-549 = system: BT-549
CAKI-1 = system: CAKI-1
CCRF-CEM = system: CCRF-CEM
COLO 205 = system: COLO 205
DU-145 = system: DU-145
EKVX = system: EKVX
HCC 2998 = system: HCC 2998
HCT-116 = system: HCT-116
HCT-15 = system: HCT-15
HL-60 = system: HL-60
HOP-62 = system: HOP-62
HT-29 = system: HT-29
Hs-578T = system: Hs-578T
IGROV-1 = system: IGROV-1
K562 = system: K562
KM12 = system: KM12
LOX IMVI = system: LOX IMVI
M14 = system: M14
MCF7 = system: MCF7
MDA-MB-231 = system: MDA-MB-231
MDA-MB-435 = system: MDA-MB-435
MDA-N = system: MDA-N
Malme-3M = system: Malme-3M
NCI-H226 = system: NCI-H226
NCI-H23 = system: NCI-H23
NCI-H460 = system: NCI-H460
NCI-H522 = system: NCI-H522
NCI/ADR-RES = system: NCI/ADR-RES
OVCAR-3 = system: OVCAR-3
OVCAR-4 = system: OVCAR-4
OVCAR-5 = system: OVCAR-5
OVCAR-8 = system: OVCAR-8
PC-3 = system: PC-3
RXF 393 = system: RXF 393
SF-268 = system: SF-268
SF-295 = system: SF-295
SF-539 = system: SF-539
SK-MEL-28 = system: SK-MEL-28
SK-MEL-2 = system: SK-MEL-2
SK-MEL-5 = system: SK-MEL-5
SK-OV-3 = system: SK-OV-3
SN12C = system: SN12C
SNB-19 = system: SNB-19
SNB-75 = system: SNB-75
SW-620 = system: SW-620
T47D = system: T47D
TK-10 = system: TK-10
U-251 = system: U-251
UACC-257 = system: UACC-257
UACC-62 = system: UACC-62
UO-31 = system: UO-31
HOP-92 = system: HOP-92
MOLT-4 = system: MOLT-4

N=C(N)NC(=N)Nc1ccccc1.Sc1nc2ccccc2s1
GI50 (786-0): > 100 µM (inactive) | GI50 (A498): > 100 µM (inactive) | GI50 (A549): > 100 µM (inactive) | GI50 (ACHN): > 100 µM (inactive) | GI50 (BT-549): > 100 µM (inactive) | GI50 (CAKI-1): > 100 µM (inactive) | GI50 (CCRF-CEM): > 100 µM (inactive) | GI50 (COLO 205): > 100 µM (inactive) | GI50 (DU-145): > 100 µM (inactive) | GI50 (EKVX): > 100 µM (inactive) | GI50 (HCC 2998): > 100 µM (inactive) | GI50 (HCT-116): > 100 µM (inactive) | GI50 (HCT-15): > 100 µM | GI50 (HL-60): > 100 µM (inactive) | GI50 (HOP-62): > 100 µM (inactive) | GI50 (HT-29): > 100 µM (inactive) | GI50 (Hs-578T): > 100 µM (inactive) | GI50 (IGROV-1): 70.5 µM (inactive) | GI50 (K562): > 100 µM (inactive) | GI50 (KM12): > 100 µM (inactive) | GI50 (LOX IMVI): > 100 µM (inactive) | GI50 (M14): > 100 µM (inactive) | GI50 (MCF7): > 100 µM (inactive) | GI50 (MDA-MB-231): > 100 µM (inactive) | GI50 (MDA-MB-435): > 100 µM (inactive) | GI50 (MDA-N): > 100 µM (inactive) | GI50 (Malme-3M): > 100 µM (inactive) | GI50 (NCI-H226): > 100 µM (inactive) | GI50 (NCI-H23): > 100 µM (inactive) | GI50 (NCI-H460): > 100 µM (inactive) | GI50 (NCI-H522): 53.8 µM (inactive) | GI50 (NCI/ADR-RES): > 100 µM (inactive) | GI50 (OVCAR-3): 0.532 µM (active) | GI50 (OVCAR-4): > 100 µM (inactive) | GI50 (OVCAR-5): > 100 µM (inactive) | GI50 (OVCAR-8): > 100 µM (inactive) | GI50 (PC-3): > 100 µM (inactive) | GI50 (RXF 393): > 100 µM (inactive) | GI50 (SF-268): > 100 µM (inactive) | GI50 (SF-295): > 100 µM (inactive) | GI50 (SF-539): > 100 µM (inactive) | GI50 (SK-MEL-28): > 100 µM (inactive) | GI50 (SK-MEL-2): > 100 µM (inactive) | GI50 (SK-MEL-5): > 100 µM (inactive) | GI50 (SK-OV-3): > 100 µM (inactive) | GI50 (SN12C): > 100 µM (inactive) | GI50 (SNB-19): > 100 µM (inactive) | GI50 (SNB-75): > 100 µM (inactive) | GI50 (SW-620): > 100 µM (inactive) | GI50 (T47D): 24.2 µM (inactive) | GI50 (TK-10): > 100 µM (inactive) | GI50 (U-251): > 100 µM (inactive) | GI50 (UACC-257): > 100 µM (inactive) | GI50 (UACC-62): > 100 µM (inactive) | GI50 (UO-31): > 100 µM (inactive)

O=[N+]([O-])C(Cl)=C/C(=C(\Cl)SCc1ccccc1)[N+](=O)[O-]
GI50 (786-0): 30.5 µM (inactive) | GI50 (A498): 27 µM (inactive) | GI50 (A549): 24.8 µM (inactive) | GI50 (ACHN): 17 µM (inactive) | GI50 (BT-549): 14.7 µM (inactive) | GI50 (CAKI-1): 18.1 µM (inactive) | GI50 (CCRF-CEM): 3.24 µM (inactive) | GI50 (COLO 205): 17.8 µM (inactive) | GI50 (DU-145): 31.4 µM (inactive) | GI50 (EKVX): 17.7 µM (inactive) | GI50 (HCC 2998): 30.6 µM (inactive) | GI50 (HCT-116): 18.4 µM (inactive) | GI50 (HCT-15): 18.2 µM | GI50 (HL-60): 5.62 µM (inactive) | GI50 (HOP-62): 18.9 µM (inactive) | GI50 (HOP-92): 15.4 µM (inactive) | GI50 (HT-29): 24.7 µM (inactive) | GI50 (Hs-578T): 53 µM (inactive) | GI50 (IGROV-1): 28.3 µM (inactive) | GI50 (K562): 13.3 µM (inactive) | GI50 (KM12): 29.5 µM (inactive) | GI50 (LOX IMVI): 16.5 µM (inactive) | GI50 (M14): 20 µM (inactive) | GI50 (MCF7): 38.2 µM (inactive) | GI50 (MDA-MB-231): 27.7 µM (inactive) | GI50 (MDA-MB-435): 18.5 µM (inactive) | GI50 (MDA-N): 23.4 µM (inactive) | GI50 (MOLT-4): 17.7 µM (inactive) | GI50 (Malme-3M): 20.2 µM (inactive) | GI50 (NCI-H226): 26.8 µM (inactive) | GI50 (NCI-H23): 37.5 µM (inactive) | GI50 (NCI-H460): 28.2 µM (inactive) | GI50 (NCI-H522): 20.7 µM (inactive) | GI50 (NCI/ADR-RES): 36.7 µM (inactive) | GI50 (OVCAR-3): 15.5 µM (inactive) | GI50 (OVCAR-4): 18.1 µM (inactive) | GI50 (OVCAR-5): 23.7 µM (inactive) | GI50 (OVCAR-8): 23.5 µM (inactive) | GI50 (PC-3): 22.1 µM (inactive) | GI50 (RXF 393): 10.6 µM (inactive) | GI50 (SF-268): 28.6 µM (inactive) | GI50 (SF-295): 28.6 µM (inactive) | GI50 (SF-539): 21 µM (inactive) | GI50 (SK-MEL-28): 26.3 µM (inactive) | GI50 (SK-MEL-2): 21.5 µM (inactive) | GI50 (SK-MEL-5): 20.8 µM (inactive) | GI50 (SK-OV-3): 59.7 µM (inactive) | GI50 (SN12C): 18.2 µM (inactive) | GI50 (SNB-19): 38.4 µM (inactive) | GI50 (SNB-75): 49.5 µM (inactive) | GI50 (SW-620): 21.2 µM (inactive) | GI50 (T47D): 16.9 µM (inactive) | GI50 (TK-10): 23.7 µM (inactive) | GI50 (U-251): 16.7 µM (inactive) | GI50 (UACC-257): 29 µM (inactive) | GI50 (UACC-62): 28.9 µM (inactive) | GI50 (UO-31): 20.5 µM (inactive)
